Data from patent US5441982A, “Therapeutics for management of cocaine induced toxicity” (priority 1993, dated 1995).
Values joined by “and” are separate entries in the source; they are usually repeats but may differ in a detail not shown here. Equal entries are not always repeated.

Experiments:
NMDA receptor = test: Competition binding, [^3 H]CGP 39653, mouse cortical membranes; details: for Effect on binding of [^3 H]CGP 39653: 0.01 to 100 uM
Description: (§1) Affinity of selected reference drugs for the NMDA receptor
(§2) labeled with [^3 H]CGP 39653 and the PCP receptor
(§3) labeled with [^3 H]MK-801, relatively to the effect of
(§4) NOS inhibitors, in mouse cortical membranes.
(§5) Competition binding assays were carried out using 14 nM [^3 H]CGP 39653 and 2 nM [^3 H]MK-801. L-NAME and NO-Arg at a concentration range of 0.01 to 100 uM, each, had no effect (N.E.) on the binding of the two tritium labeled ligands. Data represents the mean ±S.D. of three experiments.

[1] = system: cocaine induced seizures and lethality in Swiss-Webster mice; test: Effect of repeated cocaine administration on convulsive response and survival of mice pretreated with saline or NOS inhibitor; assay type: in vivo; details: for Protection against development of convulsions / Protection against lethal effects of cocaine: 60 min before cocaine 45 mg/kg/day, 7 days; for Convulsions (number of animals that seized) / Convulsions (percentage) / Survival (number of animals that survived) / Survival (percentage): saline or L-NAME (100 mg/kg) 60 min before cocaine 45 mg/kg i.p. daily
Description: In the search for safer agents that may be useful in treating cocaine induced toxicity, Applicant has discovered that drugs that block the enzyme nitric oxide (NO) synthase completely abolish cocaine induced seizures and lethality in mice (see TABLE 1). NO synthase inhibitors such as N-nitro-L-arginine methyl ester (L-NAME) and N-nitro-L-arginine (NO-Arg) are known drugs used clinically for the treatment of septic shock. […] Thus, it is though that NO, a putative neurotransmitter in the brain, is involved in DA-receptor mediated neurotoxicity. Applicant's recent studies are the first to document that NOS inhibitors have protective effects against cocaine induced toxicity. FIG. 1 and FIG. 2. Briefly, Swiss-Webster mice were pretreated with either saline, L-NAME (100 mg/kg/day) or NO-Arg (25 mg/kg/day) 60 min before the administration of cocaine (45 mg/kg/day) for 7 days. The progressive increase in the adverse and toxic effects of repetitive cocaine was manifested by an increase in the convulsive and lethal responses to cocaine. Following the 7th day of saline/cocaine treatment only 60% of the animals survived, and 100% of the animals seized.
Effect of repeated cocaine administration on convulsive
response and survival of Swiss-Webster mice pretreated with
either saline or L-NAME. Mice received a Single i.p.
injection of cocaine (45 mg/kg) each day 60 min after
pretreatment with either saline or L-NAME (100 mg/kg). Data
is expressed as the total number of animals that seized
and survived following the drugs treatment in three separate
experiments. Numbers in parentheses indicate percentage.

PCP receptor = test: Competition binding, [^3 H]MK-801, mouse cortical membranes; details: for [^3 H]MK-801 Ki / Ki: 2 nM [^3 H]MK-801, mouse cortical membranes, mean ± S.D. of three experiments, N.E. = no effect at 0.01 to 100 uM; for Effect on binding of [^3 H]MK-801: 0.01 to 100 uM
Description: as §1, §2, §3, §4, §5

[2] = 14 nM [^3 H]CGP 39653, mouse cortical membranes, mean ± S.D. of three experiments, N.E. = no effect at 0.01 to 100 uM

| Structure (SMILES) | [^3 H]CGP 39653 Ki (NMDA receptor; [2]) | Effect on binding of [^3 H]CGP 39653 (NMDA receptor) | Convulsions (number of animals that seized) ([1]; day 1) | Convulsions (percentage) ([1]; day 1) | Survival (number of animals that survived) ([1]; day 1) | Survival (percentage) ([1]; day 1) | Convulsions (number of animals that seized) ([1]; day 2) | Convulsions (percentage) ([1]; day 2) | Survival (number of animals that survived) ([1]; day 2) | Survival (percentage) ([1]; day 2) | Convulsions (number of animals that seized) ([1]; day 3) | Convulsions (percentage) ([1]; day 3) | Survival (number of animals that survived) ([1]; day 3) | Survival (percentage) ([1]; day 3) | Convulsions (number of animals that seized) ([1]; day 4) | Convulsions (percentage) ([1]; day 4) | Survival (number of animals that survived) ([1]; day 4) | Survival (percentage) ([1]; day 4) | Convulsions (number of animals that seized) ([1]; day 5) | Convulsions (percentage) ([1]; day 5) | also measured |
| --- | --- | --- | --- | --- | --- | --- | --- | --- | --- | --- | --- | --- | --- | --- | --- | --- | --- | --- | --- | --- | --- |
| NC(CCCP(=O)(O)O)C(=O)O (stereo not drawn) [AP-5] | – | – | – | – | – | – | – | – | – | – | – | – | – | – | – | – | – | – | – | – | Ki (NMDA receptor; [2]): 2230 ± 180 nM |
| COC(=O)[C@@H](N)CCCN=C(N)N[N+](=O)[O-] [L-NAME, N-nitro-L-arginine methyl ester] | N.E. | no effect | 0/30 | 0% | 30/30 | 100% | 1/30 | 3% | 30/30 | 100% | 2/30 | 6% | 30/30 | 100% | 0/30 | 0% | 30/30 | 100% | 1/30 | 3% | Protection against development of convulsions ([1]; L-NAME 100 mg/kg/day): completely protected; Protection against lethal effects of cocaine ([1]; L-NAME 100 mg/kg/day): completely protected; Survival (number of animals that survived) ([1]; day 5): 30/30; Survival (percentage) ([1]; day 5): 100%; Convulsions (number of animals that seized) ([1]; day 6): 1/30; Convulsions (percentage) ([1]; day 6): 3%; Survival (number of animals that survived) ([1]; day 6): 30/30; Survival (percentage) ([1]; day 6): 100%; Convulsions (number of animals that seized) ([1]; day 7): 0/30; Convulsions (percentage) ([1]; day 7): 0%; Survival (number of animals that survived) ([1]; day 7): 30/30; Survival (percentage) ([1]; day 7): 100%; [^3 H]MK-801 Ki (PCP receptor): N.E.; Effect on binding of [^3 H]MK-801 (PCP receptor): no effect |
| C[C@]12N[C@H](Cc3ccccc31)c1ccccc12 [MK-801] | – | – | – | – | – | – | – | – | – | – | – | – | – | – | – | – | – | – | – | – | Ki (PCP receptor): 3 ± 0.2 nM |
| NC(=NCCC[C@H](N)C(=O)O)N[N+](=O)[O-] [NO-Arg, N-nitro-L-arginine] | N.E. | no effect | – | – | – | – | – | – | – | – | – | – | – | – | – | – | – | – | – | – | Protection against development of convulsions ([1]; NO-Arg 25 mg/kg/day): completely protected; Protection against lethal effects of cocaine ([1]; NO-Arg 25 mg/kg/day): completely protected; [^3 H]MK-801 Ki (PCP receptor): N.E.; Effect on binding of [^3 H]MK-801 (PCP receptor): no effect |
| c1ccc(C2(N3CCCCC3)CCCCC2)cc1 [PCP] | – | – | – | – | – | – | – | – | – | – | – | – | – | – | – | – | – | – | – | – | Ki (PCP receptor): 55 ± 4 nM |
| COC(=O)[C@H]1[C@@H](OC(=O)c2ccccc2)C[C@@H]2CC[C@H]1N2C [cocaine] | – | – | 4/36 | 11% | 36/36 | 100% | 14/36 | 38% | 36/36 | 100% | 20/36 | 55% | 36/36 | 100% | 22/34 | 65% | 34/36 | 94% | 24/33 | 72% | Convulsions had occurred (in words) ([1]; by the seventh day, uniform daily doses of cocaine): in all animals; Survival (number of animals that survived) ([1]; day 5): 33/36; Survival (percentage) ([1]; day 5): 91%; Convulsions (number of animals that seized) ([1]; day 6): 26/27; Convulsions (percentage) ([1]; day 6): 96%; Survival (number of animals that survived) ([1]; day 6): 27/36; Survival (percentage) ([1]; day 6): 75%; Convulsions (number of animals that seized) ([1]; day 7): 22/22; Convulsions (percentage) ([1]; day 7): 100%; Survival (number of animals that survived) ([1]; day 7): 22/36; Survival (percentage) ([1]; day 7): 60% and 61% |
